Measured values taken from patent US20230069886A1, “AROMATIC SULPHONAMIDES DERIVATIVES THAT INHIBITS PDI A3, THEIR SYNTHESIS AND USE” (Uniwersytet Jagiellonski, priority 2020, published 2023).
Converted amounts (≈) assume the structure as drawn.

Tests used:
[1] = tested on: human platelets; experiment: Light transmission aggregometry of collagen-stimulated human platelet-rich plasma; type: cell-based; conditions: human PRP, FIG. 2, 3
Experimental: Anti-platelet activity of compounds of invention was assessed using light transmission aggregometry assay of human platelet-rich plasma (PRP). Venous blood was obtained from male volunteers at the University Hospital Blood Bank Centre. Volunteer donors had not taken any medicines for the preceding two weeks. Blood was collected into vials containing sodium citrate (3.2%, 9:1 v/v) as an anti-coagulant agent. To obtain platelet rich plasma (PRP), blood was centrifuged at 260×g for 15 min. The platelet […] plasma fraction (used as a blank sample) was obtained by centrifugation of the remaining blood for 10 min at 2600×g. Aggregation of blood platelets was assessed in PRP with a dual channel Chronolog aggregometer (CHRONO-LOG) using a method previously described by Born^35. PRP (500 μl) was equilibrated for 2 min at 37° C. with a continuous stirring at 800 rpm and then stimulated with collagen to cause aggregation. At the beginning of each experiment, concentrations of collagen that induced sub-maximum aggregation response were determined. These concentrations were in the range of […], respectively. All the tested compounds were added 2 min prior to stimulation of platelets with collagen. Transmittance was read 6 min after stimulation of platelets with an agonist. […]

[2] = tested on: MCF-7; experiment: MTT antiproliferative assay, 72 h, with or without estradiol, MCF-7; type: cell-based, human
Experimental: Anticancer activity of selected compounds of invention, PDI A3-inhibitors has been also tested in vitro in antiproliferative assay in normoxic and hypoxic conditions as well in estrogen-stimulated cancer cells. In the experiment, cells were seeded on 96-well plates (Sarstedt, Germany) in appropriate culture medium at a density of 10^5 cells/mL 24 h before adding the tested compounds. Cells were treated with each compound in four concentrations in the range 0.1-100 μg/mL. […] After 72 h of compound treatment at 37° C., 5% CO2 humid atmosphere and in wo different oxygen level conditions: 21%—normal and <1%—hypoxia. In some experiments the MDA-MB-231 and MCF-7 cells were seeded with or without 200 nM estradiol and after 24 h the tested compounds were added. A previously described sulforhodamine B antiproliferative assay was used with minor modifications (Skehan P et al., 1990). Briefly, cells were fixed with 50 μL/well of 50% (w/v) trichloroacetic acid (Avantor Performance Materials, Gliwice, Poland). After 1 h incubation, plates were washed several times with tap water and 50 μL of 0.4% (w/v) solution of sulforhodamine B (Sigma-Aldrich, Germany) in 1% (v/v) acetic acid (Avantor Performance Materials, Gliwice, Poland) was added to each well. After 30 min incubation at room temperature, unbound dye was washed out with 1% (v/v) acetic acid, whereas bound dye was solubilized with 10 mM unbuffered TRIS (Avantor Performance Materials, Gliwice, Poland) solution. The entire procedure was performed using a BioTek EL-406 washing station (BioTek Instruments, USA). After additional 30 min, absorbance was read using a Biotek Hybrid H4 reader (BioTek Instruments, USA) at 540 nm wavelength. MTT assay was used alternatively for HL-60 cell line and in the experiment in which estrogens are added (specified in the table legend). Absorbance was measured using a Biotek Hybrid H4 reader at 570 nm wavelength for MTT assay.
Compounds at each concentration were tested in triplicate in a single experiment and each experiment was repeated at least three times independently. Results are presented as mean IC50±SD.

For COC(=O)C1CN1S(=O)(=O)c1ccc2c(C=O)c(N(C)C)ccc2c1 (stereo not shown) [Compound C-3390, Methyl 1-[[6-(dimethylamino)-5-formyl-2-naphthyl]sulfonyl]aziridine-2-calboxylate], the “Inhibition of platelet aggregation” value [1] was “lowest EC50”, the “Lower sensitivity after treatment with estradiol in MCF-7” value ([2]; estradiol (200 nM), Table 4) was “not observed” and the “IC50 [μg/ml] MCF-7 normal” value ([2]; not pretreated with estradiol, 72 hours exposition, MTT) was 3.2 ± 0.3 µg/mL (≈ 8.83 µM). The “IC50 [μg/ml] MCF-7 +estradiol” value ([2]; pretreated with 200 nM estradiol, 72 hours exposition, MTT) was 3.4 ± 0.3 µg/mL (≈ 9.38 µM).
